This assay deals with T1, Ceramide transfer protein (Homo sapiens) (UniProt Q9Y5P4).
T1 sequence (whole entry): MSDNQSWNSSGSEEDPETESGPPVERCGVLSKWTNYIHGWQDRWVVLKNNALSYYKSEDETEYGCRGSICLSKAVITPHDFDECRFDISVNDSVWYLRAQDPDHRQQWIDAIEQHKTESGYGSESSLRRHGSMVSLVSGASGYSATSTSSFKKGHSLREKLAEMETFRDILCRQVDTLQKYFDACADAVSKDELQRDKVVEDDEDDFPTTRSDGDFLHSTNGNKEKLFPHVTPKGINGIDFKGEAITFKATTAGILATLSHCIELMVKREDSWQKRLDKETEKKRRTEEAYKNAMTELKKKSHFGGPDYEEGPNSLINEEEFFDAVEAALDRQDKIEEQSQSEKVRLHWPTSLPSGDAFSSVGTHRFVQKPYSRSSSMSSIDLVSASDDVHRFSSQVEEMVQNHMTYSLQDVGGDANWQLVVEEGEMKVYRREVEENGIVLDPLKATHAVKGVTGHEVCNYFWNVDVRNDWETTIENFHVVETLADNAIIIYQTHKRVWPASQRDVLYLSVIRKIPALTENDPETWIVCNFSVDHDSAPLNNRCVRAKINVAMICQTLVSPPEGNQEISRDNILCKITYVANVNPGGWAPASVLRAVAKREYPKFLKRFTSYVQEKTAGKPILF
The experiment in a line: Inhibition of fluorescent ceramide probe binding to recombinant His-tagged START domain of CERT (unknown origin) assessed as bound fluorescent ceramide probe level at 200 pmol preincubated for 30 mins followed by ceramide probe addition after 30 mins by FLINT assay (reference value: 28.4 +/- 2.75%). More on the design: scale not given: the % may be the effect or the level left.
Turning to `O[C@H]1[C@H](O)CNC[C@@H]1O`, the Activity came to 36.6%.
Turning to `CCCCCCCCCCCCO[C@H]1CNC[C@@H](OCCCCCCCCCCCC)[C@@H]1O`, the Activity was 51.1%.
On to `CCCCCCCCCCCCO[C@@H]1CNC[C@@H](O)[C@@H]1O`, for which the Activity was 61.3%.
Turning to `CCCCCCCCCCCCO[C@H]1CN(CCCCCCCCCCCC)C[C@@H](O)[C@@H]1O`, the Activity is 30.1%.
Turning to `CCCCCCCCCCCCN1C[C@@H](O)[C@H](O)[C@@H](O)C1`, the Activity is 48%.
As to `CCCCCCCCCCCCO[C@H]1CNC[C@@H](O)[C@@H]1O`, the Activity stood at 41%.
As for `CCCCCCCCCCCC(=O)N[C@@H](CO)C[C@H](O)c1ccccc1`, the Activity came out at 25.5%.
Under `CCCCCCCCCCCCO[C@@H]1CN(CCCCCCCCCCCC)C[C@@H](O)[C@@H]1O` stands 54.3%.
